Counter-ions that a name gives are not always drawn. Like-named read-outs stand apart in the source and are kept apart here.

From patent US5750754A, “Heterocyclic compounds” (Zeneca Limited, priority 1993, dated 1998) come the findings set out here.

The target of assay [1] is T1, purified human platelet fibrinogen receptor (GPIIb/IIIa) (Homo sapiens, UniProt P05106+P08514).
T1 construct: is isolated from human platelet lysates; from tissue
The assay can be described thus: Test (b): GPIIb/IIIa ELISA, inhibition of biotinylated fibrinogen binding. The following applies: purified human platelet GPIIb/IIIa, ELISA. The procedure: (i) Preparation of human platelet lysates.
Platelet rich plasma (PRP) is harvested by centrifugation (1000 rpm, 15 mins) of whole blood anticoaoulated with acid citrate dextrose (trisodium citrate 85 mM, citric acid 70 mM, d-glucose 110 mM) 1 part to 6 parts blood. Prostacyclin (PGI2, 1 μM) is added to the PRP before centrifugation (2400 pm, 15 mins) and the resulting pellet is resuspended in modified Tyrodes' solution (NaCl 130 mM, KCl 26 mM, NaHCO3 12 mM, NaH2 PO4 0.5 mM, MgCl2 1 mM, CaCl2 20 mM, Glucose 12 mM, HEPES 5 mM) containing bovine serum albumin 3.5 g/L, PGI2 1 μM and hirudin 0.5 U/ml. The platelet suspension is centrifuged (2400 rpm, 15 mins) and the resultant pellet resuspended in 500 μl of lysis buffer (octyl glucoside 50 mM, HEPES 10 mM, NaCl 150 mM, CaCl2 1 mM, MgCl2 1 mM, PMSF 1 mM, NEM 10 mM, leupeptin 0.1 mM), agitated at 4° C. for 15 minutes then centrifuged at 24000 rpm, 15 mins. The supernatant is stored at 4° C. and the pellet re-suspended in 500 μl of lysis buffer. The centrifugation process is repeated a further 3 tlimes, the pooled supernatants being stored at -70° C.
(ii) Receptor purification.
GP Ilb/Ila is isolated from human platelet lysates using a 2 ml peptide (KYGRGDS) coupled CNBr activated Sepharose affinity column. A 1.5 ml volume of platelet lysate is placed on the column and allowed to stand overnight at 4° C. Buffer (30 mls, octyl gluicoside 25 mM, HEPES 10 mM, NaCl 150 mM, CaCl2 1 mM, MgCl2 1 mM, PMSF 1 mM, NEM 10 mM, leupeptin 0.1 mM) is passed through the column and 2 ml fractions are collected throughout. GPIIb/IIIa is eluted with 12 mls of buffer containing HHLGGAKQAGDV (2 mg/ml, pH 7.5), the column is washed using 4 mls buffer and the remaining GPIIb/IIIa eluted using 12 mls buffer containing GRGDSPG (1 mg/ml pH 7.5). The column is finally washed using 20 mls of buffer and can be used for up to three such preparations. Fractions containing FGPIIb/IIIa are identified using gel electrophoresis and immunoblotting, pooled and stored at -70° C.
96 well microtitre plates are coated with 100 μl purified human platelet fibrinogen receptor (GPIIb/IIIa) diluted in coating buffer (Tris-HCl 20 mM, NaCl 150 mM, CaCl2 1 mM, pH 7.4) and left overnight at 4° C. The plates are washed using washing buffer (Tris-HCl 50 mM, NaCl 100 mM, CaCl2 2 mM, pH 7.4) and non-specific binding, blocked by the addition of 200 μl 2% BSA (2 hours, 30° C.). The plates are washed prior to incubation (2 hours, 30° C.) with 100 μl biotinylated fibrinogen ([…]) containing either vehicle or test compound. The plates are washed, incubated with streptavidin (5 μg/ml, 1 hour, ambient temperature), then washed again before the addition of 100 μl biotinylated horse radish peroxidase (0.1 μg/ml, 1 hour, ambient temperature). The plates are then washed and equal volumes of peroxidase substrate (3, 5, tetramethyl benzidine 0.4 g/l) and H2 O2 (0.02%) are mixed together immediately before addition of 150 μl to each well. Colour is allowed to develop for 10-15 mins before optical densities are read at 650 nm.
The concentration of compound required to cause 50% inhibition of biotinylated fibrinogen binding, is calculated and expressed as a pIC50 (-log(IC50)).

The target in assay [2] is T2, human, citrated, platelet-rich plasma (Homo sapiens, UniProt P05106+P08514).
T2 construct: aggregating human, citrated, platelet-rich plasma; endogenous in cells; host or cells: human platelets in citrated platelet-rich plasma
Briefly: Test (a): inhibition of ADP stimulated platelet aggregation (Born). The assay is classed as cell-based. Conditions: ADP induced aggregation of human platelet-rich plasma. An excerpt:
(i) aggregating human, citrated, platelet-rich plasma by addition of adenosine diphosphate so as to generate a dose-response curve;
(ii) generating a dose-response curve for ADP stimulated platelet aggregation in the presence of increasing amounts of a test compound (generally in the range 10-^5 M to 10-^10 M); and
(iii) calculating a pA2 value indicating potency of platelet aggregation inhibition for the test compound, averaged over several concentrations, from the calculated 50% response value for ADP aggregation in the presence and absence of the test compound.

Setting [3] is: read-out: Test (b): pIC50 (-log(IC50)), 50% inhibition of biotinylated fibrinogen binding to GPIIb/IIIa (converted).
[4] abbreviates: read-out: Test (a): pA2 value indicating potency of platelet aggregation inhibition (converted).

T1 sequence (P08514 32-887 limits assumed): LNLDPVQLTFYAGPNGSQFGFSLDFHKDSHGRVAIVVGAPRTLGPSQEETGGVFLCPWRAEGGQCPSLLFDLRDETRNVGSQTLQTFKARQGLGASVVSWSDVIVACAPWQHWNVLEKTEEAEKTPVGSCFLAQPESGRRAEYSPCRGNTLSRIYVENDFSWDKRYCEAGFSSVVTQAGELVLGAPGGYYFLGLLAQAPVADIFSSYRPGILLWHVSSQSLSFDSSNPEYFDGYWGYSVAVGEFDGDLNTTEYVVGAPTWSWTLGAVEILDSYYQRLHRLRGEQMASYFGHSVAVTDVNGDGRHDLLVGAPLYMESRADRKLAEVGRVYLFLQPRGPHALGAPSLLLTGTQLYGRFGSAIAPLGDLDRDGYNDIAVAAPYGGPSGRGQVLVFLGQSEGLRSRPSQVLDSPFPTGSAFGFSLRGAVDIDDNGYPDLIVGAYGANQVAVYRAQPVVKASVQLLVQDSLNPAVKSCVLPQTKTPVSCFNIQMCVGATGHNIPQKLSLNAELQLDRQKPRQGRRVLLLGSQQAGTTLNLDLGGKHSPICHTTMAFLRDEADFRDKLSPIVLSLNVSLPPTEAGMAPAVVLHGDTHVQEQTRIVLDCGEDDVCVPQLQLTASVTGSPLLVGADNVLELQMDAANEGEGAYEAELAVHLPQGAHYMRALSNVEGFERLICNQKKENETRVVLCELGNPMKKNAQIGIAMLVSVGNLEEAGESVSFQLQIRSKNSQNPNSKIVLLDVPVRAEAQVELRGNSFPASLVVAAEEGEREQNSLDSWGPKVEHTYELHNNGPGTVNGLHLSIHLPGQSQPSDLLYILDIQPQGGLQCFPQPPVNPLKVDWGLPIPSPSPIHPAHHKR
T1 sequence (P08514 891-1039 limits assumed): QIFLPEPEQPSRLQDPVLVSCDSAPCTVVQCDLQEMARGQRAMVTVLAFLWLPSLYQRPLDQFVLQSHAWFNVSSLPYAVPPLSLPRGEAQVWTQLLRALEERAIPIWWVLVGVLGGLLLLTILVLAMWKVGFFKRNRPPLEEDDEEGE
T1 sequence (P05106 27-788): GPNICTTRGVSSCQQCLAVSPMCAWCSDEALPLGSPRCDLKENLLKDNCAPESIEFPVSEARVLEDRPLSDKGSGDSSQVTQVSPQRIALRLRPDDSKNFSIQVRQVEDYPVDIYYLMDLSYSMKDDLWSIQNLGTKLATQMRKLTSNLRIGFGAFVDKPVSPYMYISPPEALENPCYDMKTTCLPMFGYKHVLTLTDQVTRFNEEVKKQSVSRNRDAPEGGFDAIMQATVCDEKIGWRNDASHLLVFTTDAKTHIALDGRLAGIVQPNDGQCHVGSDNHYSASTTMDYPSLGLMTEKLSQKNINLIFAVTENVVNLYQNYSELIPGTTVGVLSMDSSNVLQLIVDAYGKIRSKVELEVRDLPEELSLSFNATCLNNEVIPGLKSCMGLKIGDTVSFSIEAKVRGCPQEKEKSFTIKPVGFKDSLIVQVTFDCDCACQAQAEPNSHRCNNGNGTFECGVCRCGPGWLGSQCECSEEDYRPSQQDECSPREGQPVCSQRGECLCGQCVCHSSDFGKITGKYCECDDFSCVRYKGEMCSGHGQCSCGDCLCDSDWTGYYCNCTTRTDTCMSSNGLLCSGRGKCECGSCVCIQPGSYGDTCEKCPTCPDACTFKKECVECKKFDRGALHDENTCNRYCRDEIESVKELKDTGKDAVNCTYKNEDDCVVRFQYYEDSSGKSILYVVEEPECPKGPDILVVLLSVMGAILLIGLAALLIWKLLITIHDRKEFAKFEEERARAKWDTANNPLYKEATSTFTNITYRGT
T2 sequence (P08514 32-887 limits assumed): as the sequence (P08514 32-887 limits assumed) above
T2 sequence (P08514 891-1039 limits assumed): as the sequence (P08514 891-1039 limits assumed) above
T2 sequence (P05106 27-788): as the sequence (P05106 27-788) above

On to `O=C(O)C1CCN(C(=O)c2ccc(N3CCN(c4ccncc4)CC3)cc2)CC1` [Example 234, 4-[(4-Pyridyl)piperazin-1-yl]benzoylisonipecotic acid], for which the IC50 in assay [1] (setting [3]) is 0.2 µM. Besides, the Kb in assay [2] (setting [4]) was 0.631 µM.
For the compound `O=C(O)Cc1ccc(NC(=O)C2CCN(c3ccncc3)CC2)cc1` [Example 169], the IC50 in assay [1] (setting [3]) was 10 µM. Besides, the Kb in assay [2] (setting [4]) was 39.8 µM.
On the same counts, the results for `COCCNC(=O)CCCOc1ccc(N2CCN(c3ccncc3)CC2)cc1` [Example 201, N-2-Methoxyethyl-4-[4-[4-(4-pyridyl)piperazine-1-yl]phenoxy]butyramide, trifluoroacetate] are more than 100 µM and 50.1 µM.
On the same counts, the results for `COC(=O)COc1cccc(C(=O)CN2CCN(c3ccncc3)CC2)c1` [Example 119] are more than 100 µM and 31.6 µM.
On the same counts, the results for `COC(=O)COc1ccc(NC(=O)CC2CCN(c3ccncc3)CC2)cc1` [Example 165] are 20 µM and 1.26 µM.
`CCCCS(=O)(=O)NCc1ccc(NC(=O)C2CCN(c3ccncc3)CC2)cc1` [Example 170, N-[4-[4-[1-(4-Pyridyl)piperidin-4-yl]carboxamidophenyl]-methyl]-1-butanesulphonamide]: the IC50 in assay [1] (setting [3]) is more than 100 µM. In addition, in assay [2] (setting [4]), the Kb is 15.8 µM.
On to `Cc1ccc(S(=O)(=O)NCCc2ccc(C(=O)CN3CCN(c4ccncc4)CC3)cc2)cc1` [Example 23, N-[2-[4-[2-[4-(4-Pyridyl)piperazin-1-yl]acetyl]phenyl]ethyl]-4-methylphenylsulphonamide], for which the IC50 in assay [1] (setting [3]) is 6.31 to 31.6 µM. Further, in assay [2] (setting [4]), the Kb was 1 µM.
Regarding `COC(=O)C(N)CCOc1ccc(N2CCN(c3ccncc3)CC2)cc1` (racemic) [Example 213, RS Methyl 2-amino-4-[4-[4-(4-pyridyl)piperazin-1-yl]phenoxy]butyrate], in assay [1] (setting [3]), the IC50 was 0.501 µM. Besides, the Kb in assay [2] (setting [4]) is 0.2 µM.
`COC(=O)COc1ccc(C(=O)CN2CCN(c3ccnc4ccccc34)CC2)cc1` [Example 43, Methyl 4-[2-[4-(4-quinolinyl)piperazin-1-yl]acetyl]phenoxyacetate]: the IC50 in assay [1] (setting [3]) was 3.16 µM. The Kb in assay [2] (setting [4]) is 39.8 µM.
On the same counts, the results for `O=C(COc1ccc(C(=O)CN2CCN(c3ccncc3)CC2)cc1)NCc1ccccc1` [Example 145, 2-[4-[2-[4-(4-Pyridyl)piperazin-1-yl]acetyl]phenoxy]-N-(phenylmethyl)-acetamide] are 5.01 µM and 3.16 µM.
The corresponding values for `CCCCS(=O)(=O)NCC1CCN(C(=O)CN2CCN(c3ccncc3)CC2)CC1` [Example 115, N-[1-[2-[4-(4-Pyridiyl)piperazin-1-yl]acetyl]piperidin-4-ylmethyl]-1-butanesulphonamide] are more than 100 µM and 3.98 µM.
As for `CCCCS(=O)(=O)NCCc1ccc(C(=O)CN2CCN(c3ccncc3)CC2)cc1` [Example 24, N-[2-[4-[2-[4-(4-Pyridyl)piperazin-1-yl]acetyl]phenyl]ethyl]-1-butanesulphonamide], the IC50 in assay [1] (setting [3]) was 31.6 µM. Further, in assay [2] (setting [4]), the Kb was 2 µM.
Regarding `O=C(CN1CCN(c2ccncc2)CC1)c1ccc(OCc2nnn[nH]2)cc1` [Example 141, 5-[4-[2-[4-(4-Pyridyl)piperazin-1-yl]acetyl]phenoxymethyl]tetrazole], the IC50 in assay [1] (setting [3]) was 31.6 µM. In addition, in assay [2] (setting [4]), the Kb is 31.6 µM.
As to `COC(=O)COc1ccc(C(=O)C(C)CN2CCN(c3ccncc3)CC2)cc1` (racemic) [Example 177, RS Methyl 4-[3-[4-(4-pyridyl)piperazin-1-yl]-2-methylpropanoyl]-phenoxyacetate], the IC50 in assay [1] (setting [3]) is 79.4 µM. In addition, the Kb in assay [2] (setting [4]) was 1.58 µM.
As to `O=C(O)COc1ccc(C(=O)CN2CCN(c3ccncc3)CC2)c(OCC(=O)O)c1` [Example 129, 2,2'-[4-[2-[4-(4-Pyridyl)piperazin-1-yl]acetyl]phenylene-1,3-dioxy]diaceticacid, dihydrochloride], the IC50 in assay [1] (setting [3]) is 0.316 µM. In addition, the Kb in assay [2] (setting [4]) was 0.0126 µM.
Consider `CC(C)OC(=O)COc1ccc(C(=O)CN2CCN(c3ccncc3)CC2)cc1` [Example 137, iso-Propyl 4-[2-[4-(4-pyridyl)piperazin-1-yl]acetyl]phenoxyacetate], for which the IC50 in assay [1] (setting [3]) is 3.16 µM. In addition, the Kb in assay [2] (setting [4]) is 0.0631 µM.
With `Cc1cc(OCC(=O)O)ccc1C(=O)CN1CCN(c2ccncc2)CC1` [Example 125, 4-[2-[4-(4-Pyridyl)piperazin-1-yl]acetyl]-3-methylphenoxyacetic acid, dihydrochloride], the IC50 in assay [1] (setting [3]) was 0.0158 µM. In addition, the Kb in assay [2] (setting [4]) was 0.158 µM.
For the compound `O=C(O)CCC(CC1CCN(C(=O)CN2CCN(c3ccncc3)CC2)CC1)C(=O)O` (centres unmarked) [Example 112], in assay [1], the “Test (b): pIC50 (-log(IC50)), 50% inhibition of biotinylated fibrinogen binding to GPIIb/IIIa” value was 5.5. For the same compound, the “Test (a): pA2 value indicating potency of platelet aggregation inhibition” value in assay [2] amounted to 5.2.
Consider `CCCCS(=O)(=O)NC(CC1CCN(C(=O)CN2CCN(c3ccncc3)CC2)CC1)C(=O)OCC` (racemic) [Example 110, Ethyl 2RS-(n-butylsulphonylamino)-3-[1-[2-[4-(4-pyridyl)piperazin-1yl]-acetyl]piperidin-4-yl]propanoate], for which the IC50 in assay [1] (setting [3]) is more than 100 µM. The Kb in assay [2] (setting [4]) is 6.31 µM.
With `CC(C)(C(=O)c1ccc(OCC(=O)O)cc1)N1CCN(c2ccncc2)CC1` [Example 176, 4-[2-[4-(4-Pyridyl)piperazin-1-yl]-2,2-dimethylacetyl]phenoxyacetic acid], in assay [1] (setting [3]), the IC50 was 0.01 µM. In addition, in assay [2] (setting [4]), the Kb is 0.2 µM.
Compound `COC(=O)COc1ccc2c(c1)CCC(N1CCN(c3ccncc3)CC1)C2=O` (centres unmarked) [Example 80, Methyl 2-[4-(4-pyridyl)piperazin-1-yl]tetralone-6-oxyacetate] had an IC50 in assay [1] (Test (b): pIC50 (-log(IC50)), 50% inhibition of biotinylated fibrinogen binding to GPIIb/IIIa) of 0.398 µM. This compound gave a Kb in assay [2] (Test (a): pA2 value indicating potency of platelet aggregation inhibition) of 0.251 µM.
In the case of `O=C(O)COc1ccc(OC2CCN(c3ccncc3)CC2)cc1` [Example 156, 4-[1-(4-Pyridyl)piperidin-4-yl]oxyphenoxyacetic acid], in assay [1] (setting [3]), the IC50 is 1.58 µM. The Kb in assay [2] (setting [4]) is 20 µM.
On to `O=C(O)CC(NC(=O)c1ccc(N2CCN(c3ccncc3)CC2)cc1)c1ccccc1` (centres unmarked) [Example 59, 3-[4-[4-(4-Pyridy)piperazin-1-yl]benzamido]-3-phenylpropionic acid], for which the IC50 in assay [1] (setting [3]) was 0.0316 µM. For the same compound, in assay [2] (setting [4]), the Kb was 0.0631 µM.
On the same counts, the results for `O=C(O)COc1ccc(C(=O)CN2CCC(=Cc3cnccc3N3CCCC3)C2)cc1` [Example 108, 4-[2-[3-[4-(1-Pyrrolidinyl)pyridin-3yl]methylidene]pyrrolidin-1-yl]-acetylphenoxyacetic acid] are 1.26 µM and 0.501 µM.
The corresponding values for `O=C(O)COc1ccc(C(=O)CN2CCN(c3ccncc3)CC2)c2ccccc12` [Example 124, 4-[2-[4-(4-Pyridyl)piperazin-1-yl]acetyl]naphthoxyacetic acid, dihydrochloride] are 0.251 µM and 0.794 µM.
